Test results: ChEMBL document CHEMBL5465560, “Selectivity Literature for EUbOPEN Chemogenomic Library” (2024)
Values belong to the compound of their own block, whether it stands above or below them.

Key:
[1] = target: T1, Serine/threonine-protein kinase BRSK1 (Homo sapiens) (UniProt Q8TDC3); test: Selectivity interaction (KinomeScan (DiscoverX)) EUB0000607a BRSK1; settings: at 10 µM
T1 sequence (whole entry): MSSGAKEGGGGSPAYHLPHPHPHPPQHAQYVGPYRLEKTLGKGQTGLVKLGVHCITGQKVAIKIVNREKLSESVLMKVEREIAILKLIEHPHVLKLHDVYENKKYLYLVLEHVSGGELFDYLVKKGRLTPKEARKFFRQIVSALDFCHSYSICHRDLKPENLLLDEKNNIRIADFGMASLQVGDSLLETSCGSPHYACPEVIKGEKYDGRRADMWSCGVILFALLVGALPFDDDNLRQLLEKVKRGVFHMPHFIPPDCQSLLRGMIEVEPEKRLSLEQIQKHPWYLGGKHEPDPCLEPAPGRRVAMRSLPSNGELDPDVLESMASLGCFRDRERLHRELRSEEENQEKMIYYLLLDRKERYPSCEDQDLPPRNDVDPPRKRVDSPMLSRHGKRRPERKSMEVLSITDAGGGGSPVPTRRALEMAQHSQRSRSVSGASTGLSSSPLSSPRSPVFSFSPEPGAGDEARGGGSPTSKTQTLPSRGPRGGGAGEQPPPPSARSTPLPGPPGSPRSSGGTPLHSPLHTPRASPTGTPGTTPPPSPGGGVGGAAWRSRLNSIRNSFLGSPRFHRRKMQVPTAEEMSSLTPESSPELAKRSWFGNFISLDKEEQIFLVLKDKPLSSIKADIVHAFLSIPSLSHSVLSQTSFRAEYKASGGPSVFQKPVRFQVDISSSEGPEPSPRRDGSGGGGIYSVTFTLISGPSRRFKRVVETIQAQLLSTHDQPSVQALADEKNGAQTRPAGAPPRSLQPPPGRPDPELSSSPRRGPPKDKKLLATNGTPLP

[2] = target: Calcium/calmodulin-dependent protein kinase type II subunit delta (Homo sapiens) (UniProt Q13557); test: Selectivity interaction (ActivX KiNativ screen (kinase selectivity in THP-1 cell lysates)) EUB0000639a CAMK2D; type: subcellular; settings: lysate, at 0.04 µM
[3] = target: T2, Mitogen-activated protein kinase kinase kinase 5 (Homo sapiens) (UniProt Q99683); test: Selectivity interaction (ProQinase) EUB0000171b MAP3K5
T2 sequence (whole entry): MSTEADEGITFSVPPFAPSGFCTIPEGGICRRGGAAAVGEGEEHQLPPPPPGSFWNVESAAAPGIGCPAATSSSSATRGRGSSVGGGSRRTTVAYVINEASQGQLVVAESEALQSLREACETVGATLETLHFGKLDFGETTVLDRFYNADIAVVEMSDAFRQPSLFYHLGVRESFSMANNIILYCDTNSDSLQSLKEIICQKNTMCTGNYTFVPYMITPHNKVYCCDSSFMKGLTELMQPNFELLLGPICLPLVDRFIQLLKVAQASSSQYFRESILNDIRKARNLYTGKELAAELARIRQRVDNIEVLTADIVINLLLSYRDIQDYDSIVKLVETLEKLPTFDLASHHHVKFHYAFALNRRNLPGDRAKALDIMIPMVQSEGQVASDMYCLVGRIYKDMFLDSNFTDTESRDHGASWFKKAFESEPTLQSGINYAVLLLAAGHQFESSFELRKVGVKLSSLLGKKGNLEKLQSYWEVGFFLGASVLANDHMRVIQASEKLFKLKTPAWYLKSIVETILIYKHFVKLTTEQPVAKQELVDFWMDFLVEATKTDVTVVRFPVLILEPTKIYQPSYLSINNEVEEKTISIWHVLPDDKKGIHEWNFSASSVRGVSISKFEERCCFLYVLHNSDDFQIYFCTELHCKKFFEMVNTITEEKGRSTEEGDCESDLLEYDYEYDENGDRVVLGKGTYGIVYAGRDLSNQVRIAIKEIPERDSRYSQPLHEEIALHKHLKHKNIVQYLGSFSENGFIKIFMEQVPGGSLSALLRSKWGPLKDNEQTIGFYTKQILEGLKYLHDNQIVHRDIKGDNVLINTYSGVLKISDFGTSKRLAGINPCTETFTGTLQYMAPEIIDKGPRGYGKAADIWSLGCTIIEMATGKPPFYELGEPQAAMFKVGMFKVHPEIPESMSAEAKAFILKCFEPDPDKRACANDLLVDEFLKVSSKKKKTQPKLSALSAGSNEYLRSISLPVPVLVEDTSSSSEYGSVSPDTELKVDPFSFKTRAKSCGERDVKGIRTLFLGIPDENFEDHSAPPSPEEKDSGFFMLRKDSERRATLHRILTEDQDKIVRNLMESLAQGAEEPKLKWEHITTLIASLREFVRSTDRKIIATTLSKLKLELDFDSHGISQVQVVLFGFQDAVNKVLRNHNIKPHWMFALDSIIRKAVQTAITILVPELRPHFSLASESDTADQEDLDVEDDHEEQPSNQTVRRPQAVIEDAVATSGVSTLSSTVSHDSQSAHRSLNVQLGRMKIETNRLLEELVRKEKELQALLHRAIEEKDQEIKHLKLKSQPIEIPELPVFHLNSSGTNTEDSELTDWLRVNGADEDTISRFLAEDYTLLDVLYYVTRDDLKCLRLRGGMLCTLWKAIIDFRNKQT

[4] = target: Vasopressin V1a receptor (Homo sapiens) (UniProt P37288); test: Selectivity interaction (Panel of non-epigenetic targets (kinases, GPCRs, ion channels, and transporters, Eurofins) ) EUB0000271b AVPR1A; settings: at 1 µM
[5] = target: STE20/SPS1-related proline-alanine-rich protein kinase (Homo sapiens) (UniProt Q9UEW8); test: Selectivity interaction (Ambit KINOMEscan and KiNATiv profiling in Jurkat cells) EUB0000090b STK39; type: cell-based; settings: at 1 µM
[6] = target: High affinity nerve growth factor receptor (Homo sapiens, UniProt P04629); test: Selectivity interaction (SelectScreen Kinase Profiling (Thermo Fisher Scientific)) EUB0001558a NTRK1; settings: at 1 µM
[7] = target: Cyclin-dependent kinase 5/CDK5 activator 1 (Homo sapiens, UniProt Q00535)
[8] = target: Glycogen synthase kinase-3 beta (Homo sapiens, UniProt P49841); test: Selectivity interaction (KinomeScan (DiscoverX)) EUB0001079a GSK3B; settings: at 1 µM
[9] = target: Activin receptor type-2A (Homo sapiens) (UniProt P27037); settings: at 10 µM
Activin receptor type-2A (Homo sapiens), sequence (P27037 whole entry): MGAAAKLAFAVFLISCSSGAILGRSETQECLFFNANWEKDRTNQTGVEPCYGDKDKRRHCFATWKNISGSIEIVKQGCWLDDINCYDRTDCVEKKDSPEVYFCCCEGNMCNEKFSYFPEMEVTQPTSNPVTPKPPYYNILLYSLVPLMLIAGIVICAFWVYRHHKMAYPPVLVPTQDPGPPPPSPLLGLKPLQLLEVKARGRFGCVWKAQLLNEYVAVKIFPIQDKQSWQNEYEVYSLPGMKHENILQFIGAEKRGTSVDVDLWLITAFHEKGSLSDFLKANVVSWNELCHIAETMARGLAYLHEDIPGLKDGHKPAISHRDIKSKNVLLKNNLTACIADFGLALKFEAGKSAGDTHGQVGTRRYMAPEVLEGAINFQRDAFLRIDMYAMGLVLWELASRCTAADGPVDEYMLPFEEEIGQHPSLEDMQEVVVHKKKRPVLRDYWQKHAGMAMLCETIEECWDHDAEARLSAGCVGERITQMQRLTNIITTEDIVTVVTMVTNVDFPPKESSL

Vasopressin V1a receptor (Homo sapiens), sequence (P37288 whole entry, looked up): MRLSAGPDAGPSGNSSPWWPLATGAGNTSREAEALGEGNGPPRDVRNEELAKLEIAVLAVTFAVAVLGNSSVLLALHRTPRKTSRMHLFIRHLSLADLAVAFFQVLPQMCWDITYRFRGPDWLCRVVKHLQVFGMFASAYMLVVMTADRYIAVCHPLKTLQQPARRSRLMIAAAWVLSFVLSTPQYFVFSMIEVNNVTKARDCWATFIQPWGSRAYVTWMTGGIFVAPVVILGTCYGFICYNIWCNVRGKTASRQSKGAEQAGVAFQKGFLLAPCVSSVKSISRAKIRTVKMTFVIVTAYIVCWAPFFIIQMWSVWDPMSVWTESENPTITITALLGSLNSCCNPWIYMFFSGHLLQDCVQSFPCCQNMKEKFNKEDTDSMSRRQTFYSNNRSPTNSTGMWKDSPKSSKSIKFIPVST
Cyclin-dependent kinase 5/CDK5 activator 1, sequence (Q00535 whole entry): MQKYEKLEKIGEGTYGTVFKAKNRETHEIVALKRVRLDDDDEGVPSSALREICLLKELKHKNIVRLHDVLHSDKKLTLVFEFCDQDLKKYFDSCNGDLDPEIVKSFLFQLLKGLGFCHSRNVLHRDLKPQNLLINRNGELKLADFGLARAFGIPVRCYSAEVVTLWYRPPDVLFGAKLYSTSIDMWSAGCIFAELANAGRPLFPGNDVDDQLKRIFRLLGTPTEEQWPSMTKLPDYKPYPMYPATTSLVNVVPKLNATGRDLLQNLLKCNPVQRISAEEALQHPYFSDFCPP
Cyclin-dependent kinase 5/CDK5 activator 1, sequence (Q15078 whole entry, further chain): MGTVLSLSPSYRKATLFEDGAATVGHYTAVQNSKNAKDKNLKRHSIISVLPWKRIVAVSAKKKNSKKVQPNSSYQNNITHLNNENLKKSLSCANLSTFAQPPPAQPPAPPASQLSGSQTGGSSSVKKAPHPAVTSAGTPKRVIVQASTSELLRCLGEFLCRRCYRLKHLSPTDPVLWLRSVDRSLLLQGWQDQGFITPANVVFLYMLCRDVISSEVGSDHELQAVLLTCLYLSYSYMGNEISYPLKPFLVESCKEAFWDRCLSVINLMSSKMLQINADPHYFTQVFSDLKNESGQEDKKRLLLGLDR
Glycogen synthase kinase-3 beta, sequence (P49841 whole entry, looked up): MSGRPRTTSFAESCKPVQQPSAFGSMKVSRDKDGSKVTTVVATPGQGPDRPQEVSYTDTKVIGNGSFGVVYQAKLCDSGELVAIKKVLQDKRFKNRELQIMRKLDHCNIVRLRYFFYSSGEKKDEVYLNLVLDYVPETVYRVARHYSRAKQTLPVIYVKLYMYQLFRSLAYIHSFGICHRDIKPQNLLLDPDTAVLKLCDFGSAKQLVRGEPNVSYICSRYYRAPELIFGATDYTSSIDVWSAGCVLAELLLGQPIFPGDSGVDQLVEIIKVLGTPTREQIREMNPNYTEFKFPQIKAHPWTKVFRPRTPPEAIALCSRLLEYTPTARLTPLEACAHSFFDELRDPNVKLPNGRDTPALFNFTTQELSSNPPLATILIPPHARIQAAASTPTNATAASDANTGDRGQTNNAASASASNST
Calcium/calmodulin-dependent protein kinase type II subunit delta (Homo sapiens), sequence (Q13557 whole entry): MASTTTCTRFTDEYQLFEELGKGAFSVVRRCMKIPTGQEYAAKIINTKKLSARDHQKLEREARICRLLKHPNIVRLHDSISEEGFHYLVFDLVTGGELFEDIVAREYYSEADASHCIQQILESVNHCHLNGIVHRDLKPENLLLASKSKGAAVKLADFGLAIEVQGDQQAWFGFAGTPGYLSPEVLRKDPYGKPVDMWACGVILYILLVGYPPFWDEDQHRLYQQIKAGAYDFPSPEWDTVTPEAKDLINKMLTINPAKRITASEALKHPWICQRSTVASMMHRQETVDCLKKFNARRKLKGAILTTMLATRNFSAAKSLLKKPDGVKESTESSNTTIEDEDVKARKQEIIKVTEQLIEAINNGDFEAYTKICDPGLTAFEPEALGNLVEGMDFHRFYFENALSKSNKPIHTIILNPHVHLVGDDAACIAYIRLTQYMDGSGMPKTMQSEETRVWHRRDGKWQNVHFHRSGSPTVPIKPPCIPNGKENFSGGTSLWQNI
High affinity nerve growth factor receptor, sequence (P04629 33-796 limits assumed): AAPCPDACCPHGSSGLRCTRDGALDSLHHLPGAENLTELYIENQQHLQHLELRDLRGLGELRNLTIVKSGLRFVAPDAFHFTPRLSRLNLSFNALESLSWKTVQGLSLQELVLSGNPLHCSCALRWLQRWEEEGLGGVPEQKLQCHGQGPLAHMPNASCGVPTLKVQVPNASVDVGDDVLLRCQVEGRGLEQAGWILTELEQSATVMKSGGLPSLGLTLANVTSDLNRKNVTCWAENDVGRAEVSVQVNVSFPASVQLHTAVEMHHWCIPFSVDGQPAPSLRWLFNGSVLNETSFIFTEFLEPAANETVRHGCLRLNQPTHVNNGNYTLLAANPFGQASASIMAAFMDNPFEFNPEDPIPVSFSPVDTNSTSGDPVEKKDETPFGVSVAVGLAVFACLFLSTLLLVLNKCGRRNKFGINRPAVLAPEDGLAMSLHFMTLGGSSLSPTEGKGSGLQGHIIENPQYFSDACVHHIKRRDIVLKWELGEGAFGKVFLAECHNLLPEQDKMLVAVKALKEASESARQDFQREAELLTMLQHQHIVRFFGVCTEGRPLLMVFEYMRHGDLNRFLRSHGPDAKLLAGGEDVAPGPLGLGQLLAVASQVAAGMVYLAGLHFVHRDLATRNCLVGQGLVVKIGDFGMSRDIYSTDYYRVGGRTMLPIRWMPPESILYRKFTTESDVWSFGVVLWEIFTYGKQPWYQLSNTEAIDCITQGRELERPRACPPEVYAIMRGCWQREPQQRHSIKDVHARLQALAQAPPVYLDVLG

Structure (SMILES): CNC(=O)Nc1ccc(-c2nc(N3CC4CCC(C3)O4)c3cnn(C4CCC5(CC4)OCCO5)c3n2)cc1
- % of control [1]: 100%

- % of inhibition [2]: 16.7%
Structure (SMILES): CC[C@@H]1[C@H](F)C(=O)N[C@@H]1COc1nccc2cc(C(N)=O)c(OC)cc12 [ZIMLOVISERTIB]

- % of control ([3]; at 1 µM): 92%
- % of control ([3]; at 5 µM): 95%
Structure (SMILES): C=CC(=O)Nc1cccc(C(=O)Nc2ccc(Nc3cc(-c4[nH]c(SC)nc4C)ccn3)cc2)c1

Structure (SMILES): Cc1cc(C)cc([C@@H]2c3cc(C)ccc3NC(=O)CN2C(=O)c2ccc(Br)s2)c1
- % of inhibition [4]: -5%

Structure (SMILES): CN(C)C/C=C/C(=O)Nc1ccc(C(=O)N2CCCC(Nc3ncc(Cl)c(-c4c[nH]c5ccccc45)n3)C2)cc1 (stereo not given)
- % of control [5]: 95%

Structure (SMILES): CC(C)(O)[C@H](F)CN1Cc2cc(NC(=O)c3cnn4cccnc34)c(N3CCOCC3)cc2C1=O
- % of inhibition [6]: 71%

- IC50 [7]: > 10 µM
Structure (SMILES): CCc1cccc(CC)c1NC(=O)c1nn(C)c2c1CCc1cnc(Nc3ccc(C(=O)NC4CCN(C)CC4)cc3OC(F)(F)F)nc1-2

Structure (SMILES): Nc1cnc(N2CCc3cc(S(=O)(=O)Nc4c(F)cc(Cl)cc4F)cc(N4CCCC4=O)c32)nc1 [TP-020n]
- % of control [8]: 100%

Structure (SMILES): Cc1cc([C@@H](C)Nc2ccccc2C(=O)O)c2nc(N3CCOCC3)cc(=O)n2c1 [AZD-6482]
- % of control [9]: 94%
